Data on two molecules can be found in patent US10161008B2, “miR-193a-3p and associated genes predict tumorigenesis and chemotherapy outcomes” (Genedia Biotech Co., Ltd., priority 2011, dated 2018).

One assay has as its system miR-193a-3p. The assay is described as follows: qRT-PCR of miR-193a-3p after demethylation in QGY-7703. In kind it is cell-based, human. The following applies: QGY-7703, treated 2 and 4 days. The text has this: A. The physical map of the miR-193 gene region for DNA methylation analysis. (FIG. 3A discloses SEQ ID NO: 23) B. The methylation state of each of 27 CpGs in the mock treated (Mock) and treated for 2 days (2D) and 4 days (4D). C. The methylation frequency in B (unit: mC/Total) is plotted. D. The methylation state of the miR-193a gene determined by methylation-specific PCR is shown. Control: the unmethylated (U) and methylated (M) control DNA, respectively. E. Relative miR-193a-3p level determined by qRT-PCR was plotted. (*P<0.05, **P<0.01).
RNA: Total RNA was isolated using TRIzol reagent (Invitrogen, USA). Complementary DNA synthesis was performed using a primeScript RT reagent kit (Tiangen Biotech Co., Ltd., Beijing, China) for the SYBR® Green-based real-time PCR analysis in Rotor-Gene™ 6000 system, Qiagen, Germany) of SRSF2, E2F1, ABCC8, and CASP2S/L. The expression of miR-193a-3p (Ribobio, Guangzhou, China) was assessed using the 2-Ct method with RNA content normalized to the U6 RNA (Ribobio, Guangzhou, China) and to β-actin for other genes and plotted. The high-throughput, quantitative nuclease protection based analysis (Bourzac K. M. et al. (2011) J Biotechnol, 154, 68-75; Pechhold S. et al. (2009) Nat Biotechnol, 27, 1038-1042) on a customized array that are designed for the simultaneous determination of the expression of 42 human miRs and 5 housekeeping genes was determined. […]
(Real-time PCR tracks product formation cycle by cycle.)

A further assay relates to QGY-7703 cells. Nature of the assay: MTT-based IC50 determination in QGY-7703. The class given is cell-based, human. The following applies: for IC50: Homo sapiens. On the procedure:
(§1) The log phase of cell culture was obtained in Dulbecco modified Eagle medium (Invitrogen) containing 10% calf serum and 1% streptomycin-penicillin at 37° C. in 5% CO2. The thiazolyl blue tetrazolium […] cell proliferation assay was carried out as follows: 5×10^3 to 1×10^4 cells in triplicate were cultured into each well of a 96-well plate (in triplicate) for 72 h, followed by a 3-h 37° C. incubation after addition of 10 μL (5 mg/mL) MTT salt (Sigma, USA). The OD 570-nm reading was obtained; the mean and SD of the triplicate experiments were calculated and plotted (Fei Q. et al. (2008) Acta Biochim Biophys Sin (Shanghai), 40, 466-477).
(§2) The relative OD 570-nm readings (mean and SD) in each drug-treated set and the no-drug mock sample were calculated (%) and plotted against the logarithm of the drug concentration. The linear regression parameters were determined for each curve and the IC50 extrapolated (Andrisano V. et al. (2001) J Chromatogr B Biomed Sci Appl, 753, 375-383). Sources of the drugs are as follows: 5-FU, Shanghai Xudong Haipu Pharmaceutical, China; gemcitabine, Jiangsu Hansen Pharmaceutical, China; epirubicin, Shenzhen Main Luck Pharmaceutical, China; irinotecan, Aventis Pharmaceutical, Germany; paclitaxel, Bristol-Myers Squibb, USA; mitomycin, Hisun Pharmaceutical, China); docetaxel, Jiangsu Hengrui Medicine, China; vinorelbine, Yangzhou Aosaikang Pharmaceutical, China; and cisplatin, Qilu Pharmaceutical Factory, China.

The subject of the next assay is SMMC-7721 cells. Nature of the assay: MTT-based IC50 determination in SMMC-7721. In kind it is cell-based. The following applies: Homo sapiens. As for the experimental part: as §1, §2
For the next assay, the system named is HepG2 cells. Nature of the assay: MTT-based IC50 determination in HepG2. In kind it is cell-based, human.
Assay [1] relates to Bcap-37 versus ZR-75-30 breast cancer cells. Nature of the assay: IC50 screen of breast cancer cell lines. The class given is cell-based, human. The note with it: Bcap-37 vs ZR-75-30.
Method: The log phase of cell culture was obtained in Dulbecco modified Eagle medium (Invitrogen) containing 10% calf serum and 1% streptomycin-penicillin at 37° C. in 5% CO2. The thiazolyl blue tetrazolium blue (MTT)-based cell proliferation assay was carried out as follows: 5×10^3 to 1×10^4 cells in triplicate were cultured into each well of a 96-well plate (in triplicate) for 72 h, followed by a 3-h 37° C. incubation after addition of 10 μL (5 mg/mL) MTT salt (Sigma, USA). The OD 570-nm reading was obtained; the mean and SD of the triplicate experiments were calculated and plotted (Fei Q. et al. (2008) Acta Biochim Biophys Sin (Shanghai), 40, 466-477).
The relative OD 570-nm readings (mean and SD) in each drug-treated set and the no-drug mock sample were calculated (%) and plotted against the logarithm of the drug concentration. The linear regression parameters were determined for each curve and the IC50 extrapolated (Andrisano V. et al. (2001) J Chromatogr B Biomed Sci Appl, 753, 375-383). […]
Assay [2] has as its system CASP2L and CASP2S mRNAs of caspase 2. The assay is described as follows: qRT-PCR of caspase 2 splice forms in QGY-7703. In kind it is cell-based, human. The following applies: QGY-7703, low dose 4 μg/mL, one day. On the procedure:
(§3) RNA: Total RNA was isolated using TRIzol reagent (Invitrogen, USA). Complementary DNA synthesis was performed using a primeScript RT reagent kit (Tiangen Biotech Co., Ltd., Beijing, China) for the SYBR® Green-based real-time PCR analysis in Rotor-Gene™ 6000 system, Qiagen, Germany) of SRSF2, E2F1, ABCC8, and CASP2S/L. The expression of miR-193a-3p (Ribobio, Guangzhou, China) was assessed using the 2-Ct method with RNA content normalized to the U6 RNA (Ribobio, Guangzhou, China) and to β-actin for other genes and plotted. The high-throughput, quantitative nuclease protection based analysis (Bourzac K. M. et al. (2011) J Biotechnol, 154, 68-75; Pechhold S. et al. (2009) Nat Biotechnol, 27, 1038-1042) on a customized array that are designed for the simultaneous determination of the expression of 42 human miRs and 5 housekeeping genes was determined. Only miR-193a-3p expression was shown.
(§4) In light of all the known so far, this ratio is very likely to be most robust indicator to 5-FU resistance of HCC. To determine the 5-FU impact in this system, this example treated both cell lines by 4 μg/mL (a low dose) and 300 μg/mL (a high dose) for one day, respectively. […] As expected, both RNA and protein of SRSF2 were elevated by a larger margin than E2F1 in both QGY-7703 and SMMC-7721 (FIGS. 8B, C and F). […]

Assay [3] shares this test system. The assay is described as follows: qRT-PCR of caspase 2 splice forms in SMMC-7721. In kind it is cell-based, human. The note with it: SMMC-7721, low dose 4 μg/mL, one day. As for the experimental part:
as §3, §4

The test system of assay [4] is SMMC-7721 tumor xenografts. Nature of the assay: SMMC-7721 tumor growth in nude mice. In kind it is in vivo. On the procedure:
After transfection with 50 nM miR-193a-3p or mock antagomirs (Ribobio, China) for 24 h, SMMC-7721 cells were collected and subcutaneously injected into the left and right flanks (1.25×10^6 cells/point) of each nude mouse (10 total), respectively. On day 12 after cell injection, 5 mice received 5-FU (75 mg/kg mouse body weight) intraperitoneal and then twice again in 1 week. The remaining 5 mice received phosphate-buffered saline (PBS) as a mock treatment control. And at the same time, the right side of all mice tumor were intratumorally injected with miR-193a-3p antagomir and left side with mock antagomir (according to manufacture instruction, Ribobio). To monitor the tumor growth, the volume was measured with a Vernier caliper on days 12, 18, 25, and 32 and calculated as Volume=W^2×L×0.5 (W and L represent the largest and next largest tumor diameters [cm]) and then plotted. Mice were humanely sacrificed on day 32, and tumors were weighed and photographed. Immunostaining was performed for ki67, SFS2, and E2F1 expression in both tumors of mouse number 4 (mock treated) mouse number 6 (5-FU treated).

Where [5] appears, read: antagomir treated SMMC-7721, 5-FU 75 mg/kg intraperitoneal, day 32.
Setting [6] is: mock-transfected SMMC-7721, 5-FU 75 mg/kg intraperitoneal, day 32.

In brackets after ≈: the same amount, converted by molar mass. Like-named read-outs stand apart in the source and are kept apart here.

Method for HepG2 cells: The log phase of cell culture was obtained in Dulbecco modified Eagle medium (Invitrogen) containing 10% calf serum and 1% streptomycin-penicillin at 37° C. in 5% CO2. The thiazolyl blue tetrazolium blue (MTT)-based cell proliferation assay was carried out as follows: 5×10^3 to 1×10^4 cells in triplicate were cultured into each well of a 96-well plate (in triplicate) for 72 h, followed by a 3-h 37° C. incubation after addition of 10 μL (5 mg/mL) MTT salt (Sigma, USA).
The relative OD 570-nm readings (mean and SD) in each drug-treated set and the no-drug mock sample were calculated (%) and plotted against the logarithm of the drug concentration. […] Sources of the drugs are as follows: 5-FU, Shanghai Xudong Haipu Pharmaceutical, China; gemcitabine, Jiangsu Hansen Pharmaceutical, China; epirubicin, Shenzhen Main Luck Pharmaceutical, China; irinotecan, Aventis Pharmaceutical, Germany; paclitaxel, Bristol-Myers Squibb, USA; mitomycin, Hisun Pharmaceutical, China); docetaxel, Jiangsu Hengrui Medicine, China; vinorelbine, Yangzhou Aosaikang Pharmaceutical, China; and cisplatin, Qilu Pharmaceutical Factory, China.

For `Nc1ncn([C@H]2C[C@H](O)[C@@H](CO)O2)c(=O)n1` [5-Aza-2′-deoxycytidine], the “steady state level of miR-193a-3p” value in the assay with miR-193a-3p is given as “raised the steady state level of miR-193a-3p”.

For `O=c1[nH]cc(F)c(=O)[nH]1` [5-FU, 5-fluorouracil], the IC50 (usually the concentration needed to halve the response being measured) with QGY-7703 cells (QGY-7703, 72 h, MTT, read-out: IC50 to 5-FU) was 0.39 µg/mL (≈ 3 µM); in the assay on QGY-7703 cells (QGY-7703, SRSF2 siRNA-transfected QGY-7703, read-out: IC50 of 5-FU), 2.22 µg/mL (≈ 17.1 µM); in the assay on QGY-7703 cells (QGY-7703, miR-193a-3p mimic-transfected QGY-7703, read-out: 5-FU IC50), 5.29 µg/mL (≈ 40.7 µM); in the assay with QGY-7703 cells (QGY-7703, mock mimic-transfected QGY-7703, read-out: 5-FU IC50), 0.72 µg/mL (≈ 5.54 µM); with QGY-7703 cells (QGY-7703, mock siRNA-transfected QGY-7703, read-out: IC50 of 5-FU), 0.68 µg/mL (≈ 5.23 µM); with SMMC-7721 cells (SMMC-7721, 72 h, MTT, read-out: IC50 to 5-FU), 41 µg/mL (≈ 315 µM). Moreover, the IC50 was 13.4 µg/mL (≈ 103 µM) with SMMC-7721 cells (SMMC-7721, miR-193a-3p antagomir-transfected SMMC-7721, read-out: 5-FU IC50); 46.7 µg/mL (≈ 359 µM) in the assay on SMMC-7721 cells (SMMC-7721, mock-transfected SMMC-7721, read-out: 5-FU IC50); 1.45 µg/mL (≈ 11.1 µM) with HepG2 cells (Homo sapiens, HepG2, 72 h, MTT, read-out: IC50 to 5-FU). The “IC50 of QGY-7703 lower than that of SMMC-7721” value in the assay with QGY-7703 cells (QGY-7703 vs SMMC-7721) is recorded as “approximately 105.2 fold”. Besides, the “IC50 of HepG2 lower than SMMC-7721” value with HepG2 cells (HepG2 vs SMMC-7721) came out at 27.3 fold. For the same molecule, in assay [1], the “Bcap-37 more resistant than ZR-75-30 (relative IC50)” value is reported as 69.0 fold. Besides, the “CASP2L RNA, fold of the untreated level” value in assay [2] was found to be 14.62 fold; in assay [3] it was 7.38 fold. Further, the “CASP2S RNA, fold of the untreated level” value was determined as 1.46 fold in assay [2] and 1.97 fold in assay [3]. Besides, the tumor volume in assay [4] (setting [5]) was found to be 0.29 cm^3; in assay [4] (mock-transfected SMMC-7721, 5-FU 75 mg/kg intraperitoneal, day 25), 0.45 cm^3; in assay [4] (setting [6]), 0.89 cm^3. Also, the tumor weight was 0.37 g in assay [4] (setting [5]) and 0.82 g in assay [4] (setting [6]).
